Measured values from patent US20160367623A1, “AGONISTS OF GUANYLATE CYCLASE USEFUL FOR THE TREATMENT OF GASTROINTESTINAL DISORDERS, INFLAMMATION, CANCER AND OTHER DISORDERS” (priority 2015, published 2016).
Bridge positions count the residues as written; N and C are the ends. Ends that are not written are not given here.

Tested on: patients with chronic idiopathic constipation (CIC)
Experiment: Second phase 3 CIC trial: CSBM weekly responders by week
Type: in vivo, human
Details: MRA
Source text: Both trials include a two-week pre-treatment baseline period, a 12-week treatment period, and a two-week post-treatment period. The phase 3 CIC program was designed to support regulatory submission in the U. S.
The primary endpoint for both trials is the proportion of durable overall responders (%), which is the current regulatory endpoint required for U.S. approval in CIC. The FDA has defined a durable overall responder as a patient who fulfills both ≧3 complete spontaneous bowel movements (CSBMs) per week plus an increase of ≧1 CSBM from baseline in the same week, for 9 out of the 12 treatment weeks. In addition, the same patient must be an overall responder for at least 3 of the last 4 treatment weeks in order to be considered a durable overall responder.
Patients were selected using Rome 3 criteria modified for CIC and had (1) fewer than 3 defecations per week, (2) loose stools occurring rarely without laxatives, (3) inadequate criteria for irritable bowel syndrome with constipation (IBS-C), and (4) at least two of the following applied to at least 25% of defecations: (a) straining during evacuation, (b) lumpy or hard stools, (c) sensation of anorectal obstruction or blockage. Rome 3 requires patients to fulfill the criteria for the last 3 months with symptom onset at least 6 months prior to diagnosis.

[1] = Week 6, 3 mg, ITT Population-Excluding Duplicate Patients
[2] = Week 6, 6 mg, ITT Population-Excluding Duplicate Patients
[3] = Week 6, Active Combined, ITT Population-Excluding Duplicate Patients
[4] = Week 6, Active Combined, ITT Population
[5] = Week 7, 3 mg, ITT Population-Excluding Duplicate Patients
[6] = Week 7, 6 mg, ITT Population-Excluding Duplicate Patients
[7] = Week 7, Active Combined, ITT Population-Excluding Duplicate Patients
[8] = Week 7, Active Combined, ITT Population
[9] = Week 8, 3 mg, ITT Population-Excluding Duplicate Patients
[10] = Week 8, 6 mg, ITT Population-Excluding Duplicate Patients
[11] = Week 8, Active Combined, ITT Population-Excluding Duplicate Patients
[12] = Week 8, Active Combined, ITT Population
[13] = Week 9, 3 mg, ITT Population-Excluding Duplicate Patients
[14] = Week 9, 6 mg, ITT Population-Excluding Duplicate Patients

Substance: Asn^1-Asp^2-Glu^3-Cys^4-Glu^5-Leu^6-Cys^7-Val^8-Asn^9-Val^10-Ala^11-Cys^12-Thr^13-Gly^14-Cys^15-Leu^16 (NDECELCVNVACTGCL; disulfide 4-12, 7-15) [Plecanatide, uroguanylin analogue, guanylate cyclase-C agonist; (C4:C12, C7:C15) bicycle peptide]
- Non-Responders, n (%) (Week 5, Active Combined, ITT Population): 605 (67.8) n (%)
- Difference in Proportions (adjusted) (Week 6, 3 mg minus placebo, All Randomized (includes Duplicate Patients)): 0.100
- Odds Ratio (adjusted) (Week 6, 3 mg vs placebo, All Randomized (includes Duplicate Patients)): 0.593
- CSBM Weekly Responders, n (%) (Week 6, 3 mg, ITT Population): 137 (30.9) n (%)
- Non-Responders, n (%) (Week 6, 3 mg, ITT Population): 306 (69.1) n (%)
- CSBM Weekly Responders, n (%) [1]: 136 (31.3) n (%)
- Non-Responders, n (%) [1]: 298 (68.7) n (%)
- Difference in Proportions (adjusted) (Week 6, 6 mg minus placebo, All Randomized (includes Duplicate Patients)): 0.110
- Odds Ratio (adjusted) (Week 6, 6 mg vs placebo, All Randomized (includes Duplicate Patients)): 0.566
- CSBM Weekly Responders, n (%) (Week 6, 6 mg, ITT Population): 146 (32.5) n (%)
- Non-Responders, n (%) (Week 6, 6 mg, ITT Population): 303 (67.5) n (%)
- CSBM Weekly Responders, n (%) [2]: 146 (33.0) n (%)
- Non-Responders, n (%) [2]: 297 (67.0) n (%)
- Difference in Proportions (adjusted) (Week 6, 3 mg minus placebo, ITT Population-Excluding Duplicate Patients): 0.096
- Difference in Proportions (adjusted) (Week 6, 3 mg minus placebo, ITT Population): 0.093
- Odds Ratio (adjusted) (Week 6, 3 mg vs placebo, ITT Population-Excluding Duplicate Patients): 0.610
- Odds Ratio (adjusted) (Week 6, 3 mg vs placebo, ITT Population): 0.615
- Difference in Proportions (adjusted) (Week 6, 6 mg minus placebo, ITT Population-Excluding Duplicate Patients): 0.112
- Difference in Proportions (adjusted) (Week 6, 6 mg minus placebo, ITT Population): 0.109
- Odds Ratio (adjusted) (Week 6, 6 mg vs placebo, ITT Population-Excluding Duplicate Patients): 0.565
- Odds Ratio (adjusted) (Week 6, 6 mg vs placebo, ITT Population): 0.571
- CSBM Weekly Responders, n (%) [3]: 282 (32.2) n (%)
- Non-Responders, n (%) [3]: 595 (67.8) n (%)
- CSBM Weekly Responders, n (%) [4]: 283 (31.7) n (%)
- Non-Responders, n (%) [4]: 609 (68.3) n (%)
- Difference in Proportions (adjusted) (Week 7, 3 mg minus placebo, All Randomized (includes Duplicate Patients)): 0.091
- Odds Ratio (adjusted) (Week 7, 3 mg vs placebo, All Randomized (includes Duplicate Patients)): 0.634
- CSBM Weekly Responders, n (%) (Week 7, 3 mg, ITT Population): 145 (32.7) n (%)
- Non-Responders, n (%) (Week 7, 3 mg, ITT Population): 298 (67.3) n (%)
- CSBM Weekly Responders, n (%) [5]: 144 (33.2) n (%)
- Non-Responders, n (%) [5]: 290 (66.8) n (%)
- Difference in Proportions (adjusted) (Week 7, 6 mg minus placebo, All Randomized (includes Duplicate Patients)): 0.075
- Odds Ratio (adjusted) (Week 7, 6 mg vs placebo, All Randomized (includes Duplicate Patients)): 0.681
- CSBM Weekly Responders, n (%) (Week 7, 6 mg, ITT Population): 140 (31.2) n (%)
- Non-Responders, n (%) (Week 7, 6 mg, ITT Population): 309 (68.8) n (%)
- CSBM Weekly Responders, n (%) [6]: 140 (31.6) n (%)
- Non-Responders, n (%) [6]: 303 (68.4) n (%)
- Difference in Proportions (adjusted) (Week 7, 3 mg minus placebo, ITT Population-Excluding Duplicate Patients): 0.089
- Difference in Proportions (adjusted) (Week 7, 3 mg minus placebo, ITT Population): 0.085
- Odds Ratio (adjusted) (Week 7, 3 mg vs placebo, ITT Population-Excluding Duplicate Patients): 0.645
- Odds Ratio (adjusted) (Week 7, 3 mg vs placebo, ITT Population): 0.659
- Difference in Proportions (adjusted) (Week 7, 6 mg minus placebo, ITT Population-Excluding Duplicate Patients): 0.074
- Difference in Proportions (adjusted) (Week 7, 6 mg minus placebo, ITT Population): 0.069
- Odds Ratio (adjusted) (Week 7, 6 mg vs placebo, ITT Population-Excluding Duplicate Patients): 0.693
- Odds Ratio (adjusted) (Week 7, 6 mg vs placebo, ITT Population): 0.707
- CSBM Weekly Responders, n (%) [7]: 284 (32.4) n (%)
- Non-Responders, n (%) [7]: 593 (67.6) n (%)
- CSBM Weekly Responders, n (%) [8]: 285 (32.0) n (%)
- Non-Responders, n (%) [8]: 607 (68.0) n (%)
- Difference in Proportions (adjusted) (Week 8, 3 mg minus placebo, All Randomized (includes Duplicate Patients)): 0.076
- Odds Ratio (adjusted) (Week 8, 3 mg vs placebo, All Randomized (includes Duplicate Patients)): 0.687
- CSBM Weekly Responders, n (%) (Week 8, 3 mg, ITT Population): 145 (32.7) n (%)
- Non-Responders, n (%) (Week 8, 3 mg, ITT Population): 298 (67.3) n (%)
- CSBM Weekly Responders, n (%) [9]: 144 (33.2) n (%)
- Non-Responders, n (%) [9]: 290 (66.8) n (%)
- Difference in Proportions (adjusted) (Week 8, 6 mg minus placebo, All Randomized (includes Duplicate Patients)): 0.067
- Odds Ratio (adjusted) (Week 8, 6 mg vs placebo, All Randomized (includes Duplicate Patients)): 0.716
- CSBM Weekly Responders, n (%) (Week 8, 6 mg, ITT Population): 144 (32.1) n (%)
- Non-Responders, n (%) (Week 8, 6 mg, ITT Population): 305 (67.9) n (%)
- CSBM Weekly Responders, n (%) [10]: 143 (32.3) n (%)
- Non-Responders, n (%) [10]: 300 (67.7) n (%)
- Difference in Proportions (adjusted) (Week 8, 3 mg minus placebo, ITT Population-Excluding Duplicate Patients): 0.073
- Difference in Proportions (adjusted) (Week 8, 3 mg minus placebo, ITT Population): 0.069
- Odds Ratio (adjusted) (Week 8, 3 mg vs placebo, ITT Population-Excluding Duplicate Patients): 0.703
- Odds Ratio (adjusted) (Week 8, 3 mg vs placebo, ITT Population): 0.717
- Difference in Proportions (adjusted) (Week 8, 6 mg minus placebo, ITT Population-Excluding Duplicate Patients): 0.064
- Difference in Proportions (adjusted) (Week 8, 6 mg minus placebo, ITT Population): 0.062
- Odds Ratio (adjusted) (Week 8, 6 mg vs placebo, ITT Population-Excluding Duplicate Patients): 0.731
- Odds Ratio (adjusted) (Week 8, 6 mg vs placebo, ITT Population): 0.738
- CSBM Weekly Responders, n (%) [11]: 287 (32.7) n (%)
- Non-Responders, n (%) [11]: 590 (67.3) n (%)
- CSBM Weekly Responders, n (%) [12]: 289 (32.4) n (%)
- Non-Responders, n (%) [12]: 603 (67.6) n (%)
- Difference in Proportions (adjusted) (Week 9, 3 mg minus placebo, All Randomized (includes Duplicate Patients)): 0.084
- Odds Ratio (adjusted) (Week 9, 3 mg vs placebo, All Randomized (includes Duplicate Patients)): 0.656
- CSBM Weekly Responders, n (%) (Week 9, 3 mg, ITT Population): 147 (33.2) n (%)
- Non-Responders, n (%) (Week 9, 3 mg, ITT Population): 296 (66.8) n (%)
- CSBM Weekly Responders, n (%) [13]: 146 (33.6) n (%)
- Non-Responders, n (%) [13]: 288 (66.4) n (%)
- Difference in Proportions (adjusted) (Week 9, 6 mg minus placebo, All Randomized (includes Duplicate Patients)): 0.073
- Odds Ratio (adjusted) (Week 9, 6 mg vs placebo, All Randomized (includes Duplicate Patients)): 0.691
- CSBM Weekly Responders, n (%) (Week 9, 6 mg, ITT Population): 141 (31.4) n (%)
- Non-Responders, n (%) (Week 9, 6 mg, ITT Population): 308 (68.6) n (%)
- CSBM Weekly Responders, n (%) [14]: 140 (31.6) n (%)
- Non-Responders, n (%) [14]: 303 (68.4) n (%)
- Difference in Proportions (adjusted) (Week 9, 3 mg minus placebo, ITT Population-Excluding Duplicate Patients): 0.082
- Difference in Proportions (adjusted) (Week 9, 3 mg minus placebo, ITT Population): 0.082
- Odds Ratio (adjusted) (Week 9, 3 mg vs placebo, ITT Population-Excluding Duplicate Patients): 0.673
- Odds Ratio (adjusted) (Week 9, 3 mg vs placebo, ITT Population): 0.67
- Difference in Proportions (adjusted) (Week 9, 6 mg minus placebo, ITT Population-Excluding Duplicate Patients): 0.062
- Difference in Proportions (adjusted) (Week 9, 6 mg minus placebo, ITT Population): 0.065
- Odds Ratio (adjusted) (Week 9, 6 mg vs placebo, ITT Population-Excluding Duplicate Patients): 0.738
